Measured values reported in the NIST ThermoML archive (doi:10.1016/j.jct.2012.12.003).
“And” between values parts separate entries of the source, which are not always exact repeats. Identical values can stand only once.

Tests used:
[1] = 101.3 kPa, Liquid, Vibrating tube method
[2] = xn = mol fraction of the nth substance listed; conditions: 101.3 kPa, Liquid, Vibrating tube method

CC(O)CO (stereo not given) [1,2-propanediol]
[1]
Conditions	mass density
293.15 K	1036.21 kg/m3 [middle of 4 runs]
298.15 K	1032.55 kg/m3 [middle of 4 runs]
303.15 K	1028.84 kg/m3 [middle of 4 runs]
308.15 K	1025.09 kg/m3 and 1025.1 kg/m3 and 1025.05 kg/m3
313.15 K	1021.28 kg/m3 and 1021.31 kg/m3
318.15 K	1017.47 kg/m3 and 1017.49 kg/m3

CC(O)CO (stereo not given) [1,2-propanediol] + CCCCCCCCCO
[2], x1 = 1
Conditions	mass density [kg/m3]
293.15 K	1036.17
298.15 K	1032.52
303.15 K	1028.83
308.15 K	1025.09
313.15 K	1021.31
318.15 K	1017.49

CC(O)CO (stereo not given) [1,2-propanediol] + CCCCCCCCO
mass density [kg/m3], [2]
Conditions	x1 = 0.1028	x1 = 0.1938	x1 = 0.3029	x1 = 0.3929	x1 = 0.5181	x1 = 0.6002	x1 = 0.7012	x1 = 0.8016	x1 = 0.901	x1 = 1
293.15 K	834.904	844.743	858.314	871.118	892.06	908.213	931.472	959.327	993.344	1036.22
298.15 K	831.409	841.209	854.74	867.513	888.414	904.545	927.781	955.627	989.648	1032.56
303.15 K	827.891	837.652	851.144	863.884	884.743	900.85	924.062	951.891	985.914	1028.85
308.15 K	824.351	834.08	847.528	860.235	881.051	897.13	920.315	948.124	982.15	1025.1
313.15 K	820.793	830.481	843.885	856.562	877.332	893.39	916.543	944.333	978.349	1021.31
318.15 K	817.208	826.859	840.223	852.864	873.592	889.619	912.743	940.506	974.513	1017.49

CC(O)CO (stereo not given) [1,2-propanediol] + CCCCCCO
mass density [kg/m3], [2]
Conditions	x1 = 0.1014	x1 = 0.1998	x1 = 0.2999	x1 = 0.4003	x1 = 0.4939	x1 = 0.5996	x1 = 0.6965	x1 = 0.7989	x1 = 0.9005	x1 = 1
293.15 K	831.496	845.231	860.667	877.818	895.533	917.945	941.028	968.795	1000.46	1036.21
298.15 K	827.881	841.574	856.979	874.105	891.801	914.203	937.285	965.064	996.753	1032.55
303.15 K	824.235	837.887	853.262	870.363	888.041	910.432	933.51	961.302	993.003	1028.84
308.15 K	820.566	834.178	849.521	866.596	884.256	906.63	929.702	957.503	989.222	1025.09
313.15 K	816.869	830.44	845.751	862.8	880.441	902.801	925.868	953.677	985.406	1021.31
318.15 K	813.142	826.676	841.952	858.977	876.599	898.941	922.002	949.81	981.555	1017.49

CC(O)CO (stereo not given) [1,2-propanediol] + CCCO
mass density [kg/m3], [2]
Conditions	x1 = 0.1001	x1 = 0.2	x1 = 0.3001	x1 = 0.3999	x1 = 0.4999	x1 = 0.6997	x1 = 0.7998	x1 = 0.9497	x1 = 1
293.15 K	827.101	850.504	873.567	897.361	920.615	967.056	990.126	1024.72	1036.13
298.15 K	823.072	846.479	869.634	893.372	916.676	963.215	986.331	1021.04	1032.48
303.15 K	819.008	842.415	865.603	889.385	912.697	959.329	982.502	1017.3	1028.78
308.15 K	814.909	838.312	861.519	885.326	908.683	955.407	978.642	1013.52	1025.05
313.15 K	810.77	834.174	857.399	881.264	904.631	951.451	974.743	1009.71	1021.28
318.15 K	806.589	829.994	853.237	877.138	900.544	947.456	970.809	1005.86	1017.47

CC(O)CO (stereo not given) [1,2-propanediol] + CO
mass density [kg/m3], [2]
Conditions	x1 = 0.1008	x1 = 0.1385	x1 = 0.2582	x1 = 0.3	x1 = 0.4851	x1 = 0.5476	x1 = 0.6991	x1 = 0.7595	x1 = 0.8991	x1 = 1
293.15 K	838.277	853.548	895.155	908.078	954.527	967.74	995.074	1004.49	1024	1036.17
298.15 K	833.79	849.127	890.917	903.893	950.534	963.799	991.242	1000.7	1020.29	1032.52
303.15 K	829.274	844.68	886.644	899.676	946.507	959.825	987.37	996.862	1016.54	1028.83
308.15 K	824.731	840.206	882.346	895.43	942.448	955.815	983.47	992.997	1012.75	1025.09
313.15 K	820.164	835.7	878.013	891.151	938.356	951.772	979.532	989.094	1008.92	1021.31
318.15 K	815.56	831.158	873.648	886.837	934.226	947.684	975.556	985.157	1005.05	1017.49

CCCCCCO [hexan-1-ol]
[1]
Conditions	mass density [kg/m3]
293.15 K	818.749
298.15 K	815.188
303.15 K	811.6
308.15 K	807.984
313.15 K	804.339
318.15 K	800.657

CCCCCCO [hexan-1-ol] + CC(O)CO
[2], x2 = 0
Conditions	mass density [kg/m3]
293.15 K	818.749
298.15 K	815.188
303.15 K	811.6
308.15 K	807.984
313.15 K	804.339
318.15 K	800.657

CO [methanol]
[1]
Conditions	mass density [kg/m3]
293.15 K	791.494
298.15 K	786.794
303.15 K	782.071
308.15 K	777.326
313.15 K	772.55
318.15 K	767.744

CO [methanol] + CC(O)CO
[2], x2 = 0
Conditions	mass density [kg/m3]
293.15 K	791.494
298.15 K	786.794
303.15 K	782.071
308.15 K	777.326
313.15 K	772.55
318.15 K	767.744

CCCCCCCCCO [nonan-1-ol]
[1]
Conditions	mass density [kg/m3]
293.15 K	827.667
298.15 K	824.254
303.15 K	820.815
308.15 K	817.362
313.15 K	813.885
318.15 K	810.385

CCCCCCCCCO [nonan-1-ol] + CC(O)CO
mass density [kg/m3], [2]
Conditions	x2 = 0	x2 = 0.1056	x2 = 0.225	x2 = 0.3433	x2 = 0.3773	x2 = 0.5551	x2 = 0.6746	x2 = 0.7695	x2 = 0.7978	x2 = 0.899
293.15 K	827.667	836.639	848.601	862.671	867.271	895.783	920.803	945.697	953.952	989.338
298.15 K	824.254	833.182	845.095	859.126	863.71	892.163	917.143	942.013	950.266	985.641
303.15 K	820.815	829.698	841.567	855.554	860.127	888.513	913.452	938.296	946.543	981.914
308.15 K	817.362	826.204	838.022	851.964	856.523	884.841	909.736	934.554	942.791	978.153
313.15 K	813.885	822.685	834.458	848.353	852.901	881.148	906.002	930.783	939.015	974.358
318.15 K	810.385	819.146	830.872	844.72	849.257	877.428	902.236	926.985	935.207	970.53

CCCCCCCCO [octan-1-ol]
[1]
Conditions	mass density [kg/m3]
293.15 K	825.093
298.15 K	821.647
303.15 K	818.177
308.15 K	814.686
313.15 K	811.171
318.15 K	807.629

CCCCCCCCO [octan-1-ol] + CC(O)CO
[2], x2 = 0
Conditions	mass density [kg/m3]
293.15 K	825.093
298.15 K	821.647
303.15 K	818.177
308.15 K	814.686
313.15 K	811.171
318.15 K	807.629

CCCO [propan-1-ol]
[1]
Conditions	mass density [kg/m3]
293.15 K	803.527
298.15 K	799.528
303.15 K	795.493
308.15 K	791.426
313.15 K	787.32
318.15 K	783.164

CCCO [propan-1-ol] + CC(O)CO
[2], x2 = 0
Conditions	mass density [kg/m3]
293.15 K	803.527
298.15 K	799.528
303.15 K	795.493
308.15 K	791.426
313.15 K	787.32
318.15 K	783.164
